# Measured values reported in article PMC9587079, “Bioavailability of inhaled or ingested PFOA adsorbed to house dust” (Environmental Science and Pollution Research International, 2022).
# Read-outs that look alike come from different tables or passages of the source.
# Tests used:
# [1] = Extractable organofluorine (EOF) and fluorine mass balance in plasma and tissues at 48 h; assay type: in vivo, rat; settings: for concentration at 48 h: male, RccHan:WIST, rat, read-out: PFOA-fluorine equivalent
# Protocol: Plasma and tissue samples taken at 48 h after exposure were subjected to EOF analysis. Extraction procedure followed the procedure described above with the exception that no mass labelled internal standards were spiked to the samples before extraction. The EOF content of the 1 mL extract was analyzed by combustion ion chromatography (CIC). Part of the extract (200 μL) was transferred to a LC vial with the addition of 10 μL of mass-labelled standards; after that, aqueous ammonium acetate (2 mM, 300 μL) was added to the vial for PFAS analysis using LC-MS/MS. The reported EOF concentrations as well as the concentration of PFOA for mass balance analysis were not recovery-corrected.
# Levels of EOF in the sample extracts were determined with a combustion ion chromatography (CIC) system consisting of a combustion module (Analytik Jena, Germany), a 920 Absorber Module and a 930 Compact IC Flex ion chromatograph module (both from Metrohm, Switzerland). An ion exchange column (Metrosep A Supp 5–150/4.0), with carbonate buffer (64 mmol/L sodium carbonate and 20 mmol/L sodium bicarbonate) as the mobile phase, was used for the separation of anions; the absorber solution was water. The sample extract (100 μL) was set on a silica boat via an autosampler and placed into a furnace at 900–1000 °C. The combustion of the sample in the furnace converted organic fluorine and inorganic fluorine into hydrogen fluoride (HF), which was then trapped by MilliQ water. The fluoride concentration in the solution was analyzed using ion chromatography. […] Quantification was based on external calibration. The analytical conditions for ion chromatography have been reported elsewhere (Kärrman et al. [2021]).
# The measured PFOA concentration (ng/mL) in the sample extract of the EOF analysis was converted to the corresponding fluoride-equivalent concentration (ng/mL F) using the following formula:1 CFPFAS=CPFAS*NF*AF/MWPFAS where CPFAS is the concentration of the target compound (i.e., PFOA), NF is the number of fluorine atoms in the target compound (i.e., 15), AF is the atomic weight of fluorine (g/mol, i.e., 19), and MWPFAS is the molecular weight of the target compound (i.e., 413). The sum of known extractable fluorine concentration (ΣCF_PFAS) was calculated by summing the fluorine concentrations from all individual PFASs. Values below limits of quantification (LOQ) were set for calculating ΣCF_PFAS. Levels of unidentified organofluorine were calculated by subtracting […], which in this present study only PFOA.
# [2] = set-up: method as in Iwabuchi et al. [2017]; settings: oral 100 μg/kg bw, male rats, ref Iwabuchi et al. [2017], cited from earlier work
smiles,measurement,setting,value
"O=C(O)C(F)(F)C(F)(F)C(F)(F)C(F)(F)C(F)(F)C(F)(F)C(F)(F)F [PFOA, Perfluorooctanoic acid]",Proportion of PFOA to EOF in plasma,[1]; both exposure groups,65–71%
same,Contribution to EOF (%),"[1]; kidney, inhalation",81%
same,Contribution to EOF (%),"[1]; kidney, oral",83%
same,Contribution to EOF (%),"[1]; liver, inhalation",87%
same,Contribution to EOF (%),"[1]; liver, oral",83%
same,Contribution to EOF (%),"[1]; lung lavage, inhalation",76%
same,Contribution to EOF (%),"[1]; lung lavage, oral",84%
same,Contribution to EOF (%),"[1]; lung, inhalation",86%
same,Contribution to EOF (%),"[1]; lung, oral",74%
same,concentration at 48 h,"[1]; 364 μg PFOA/kg BW, kidney, oral",2160 ± 130 ng/g
same,concentration at 48 h,"[1]; 364 μg PFOA/kg BW, liver, oral",6140 ± 340 ng/g
same,concentration at 48 h,"[1]; 364 μg PFOA/kg BW, lung, oral",1160 ± 210 ng/g
same,concentration at 48 h,"[1]; 364 μg PFOA/kg BW, plasma, oral, not recovery-corrected",1.42 ± 0.24 µg/mL
same,concentration at 48 h,"[1]; inhaled, 164 μg PFOA/kg BW, kidney, inhalation",2640 ± 530 ng/g
same,concentration at 48 h,"[1]; inhaled, 164 μg PFOA/kg BW, liver, inhalation",6950 ± 650 ng/g
same,concentration at 48 h,"[1]; inhaled, 164 μg PFOA/kg BW, lung, inhalation",21500 ± 2750 ng/g
same,concentration at 48 h,"[1]; inhaled, 164 μg PFOA/kg BW, plasma, inhalation, not recovery-corrected",1.53 ± 0.17 µg/mL
same,concentration at 48 h,"[1]; lung lavage (BALF), 364 μg PFOA/kg BW, lung lavage, oral",0.21 ± 0.02 µg/mL
same,concentration at 48 h,"[1]; lung lavage (BALF), inhaled, 164 μg PFOA/kg BW, lung lavage, inhalation",6.87 ± 0.43 µg/mL
same,"Share of EOF levels explained by measured PFOA, all samples",[1]; plasma and tissues,65–87%
same,Contribution to EOF (%),"[1]; plasma, oral",65%
same,Liver to serum ratio,[2]; at Cmax (12 h),1.67
same,Kidney to serum ratio,[2],0.82
